Our source for the Kd, MIC and MIC50 values is ChEMBL document CHEMBL5223096, “Potential therapeutic targets from Mycobacterium abscessus (Mab): recently reported efforts towards the discovery of novel antibacterial agents to treat Mab infections” (RSC Med Chem, 2022).

pKd: −log10 of the molar value. In brackets after ≈: the same amount, converted by molar mass. Numbered stars: 1 amine (or outer) side, 2 acyl side, 3 side chain; on linkers, the order of the positions; unused ones are H or OH. Bridge positions count the residues as written; N and C are the ends. Square brackets hold non-standard residues; d marks the D form. Peptide text beside a SMILES is read from it. * marks the point of attachment. Phe(3R-OH) = O=C([C@@H](N[*:1])[C@H](O[*:3])c1ccccc1)[*:2]; NMeTrp(4-OMe) = CN[C@@H](Cc1c[nH]c2cccc(OC)c12)C(=O)O; NMeaIle = CC[C@@H](C)[C@H](NC)C(=O)O; NMe2Val = CC(C)[C@@H](C(=O)*)N(C)C; NMeT = CN[C@H](C(=O)O)[C@@H](C)O; NMeL = CN[C@@H](CC(C)C)C(=O)O; NMeV = CN[C@H](C(=O)O)C(C)C

The nature of experiment [1]: Binding affinity to Mycobacterium abscessus ClpC1 by SPR assay. Also noted: species or system Mycobacteroides abscessus. In general terms: In SPR one partner is held on a chip, and binding of the other changes the refractive index at the surface.
Experiment [2] concerns Mycobacteroides abscessus. Briefly: Antimycobacterial activity against Mycobacterium abscessus. In kind it is functional.
Experiment [3] concerns Mycobacterium tuberculosis. Briefly: Antimycobacterial activity against Mycobacterium tuberculosis. In kind it is functional.

One may read the pKd as the negative decadic logarithm of the Kd, by convention in mol/L. A low value points to a high Kd. One may read the MIC as the lowest concentration found to suppress growth. Read a low MIC as a more susceptible organism. For the compound `C/C=C/C[C@@H]1NC(=O)[C@H](CC(C)C)N2C(=O)[C@H](C[C@H](C)[C@H]2O)N(C)C(=O)[C@H](C)NC(=O)[C@H](Cc2ccc(O)c([N+](=O)[O-])c2)NC(=O)[C@H](CC(C)C)N(C)C(=O)[C@H](Cc2cn(C(C)(C)C3CO3)c3ccccc23)NC1=O` (some centres not stated), the negative logarithm of the Kd (pKd) in experiment [1] was 7.00. In experiment [2], the minimum inhibitory concentration (MIC) was 0.42 µM (≈ 0.438 µg/mL). One may read the MIC50 as an inhibitory concentration at the 50% level, which refers to growth in some studies and to a panel of isolates in others. In the case of `CCCCCCCCCCCCCCCCOP1(=O)OCCC(C(=O)OC)=C(C)O1` (racemic), the MIC50 in experiment [2] was 0.37 µM (≈ 0.165 µg/mL). As for `CC(C)COc1nn(-c2ccc(Oc3ccccc3)cc2)c(=O)o1`, in experiment [2], the MIC50 turned out to be 33 µM (≈ 10.8 µg/mL). In turn, `Cc1cc(C)c2cc(C(=O)NC3CCCCCC3)[nH]c2c1` registered a minimum inhibitory concentration (MIC) in experiment [2] of 0.06 µM (≈ 0.0171 µg/mL). In experiment [1], `CC[C@@H](C)[C@@H](C(=O)N[C@@H]1C(=O)N(C)[C@@H]([C@@H](C)O)C(=O)N[C@@H](C(C)C)C(=O)N(C)[C@@H](CC(C)C)C(=O)N[C@@H](C(C)C)C(=O)N(C)[C@@H](C(C)C)C(=O)N(C)[C@@H](Cc2c[nH]c3cccc(OC)c23)C(=O)N[C@@H](C(C)C)C(=O)N[C@@H]([C@H](O)c2ccccc2)C(=O)N[C@@H](C(C)C)C(=O)O[C@@H]1C)N(C)C(=O)[C@@H](NC(=O)[C@H](C(C)C)N(C)C)C(C)C` (NMe2Val-V[NMeaIle]T[NMeT]V[NMeL]V[NMeV][NMeTrp(4-OMe)]V[Phe(3R-OH)]V; ester 3-C) had a negative-log Kd (pKd) of 7.00. In experiment [3], the minimum inhibitory concentration (MIC) is 0.16 µM (≈ 0.256 µg/mL).
